The subject of one assay is OleTJE L176I. As to the kind of experiment: Fatty acid bioconversion with H2O2 as co-substrate (alkene by GC-MS, hydroxy products by HPLC-MS). In kind it is biochemical, Jeotgalicoccus sp. 8456. The following applies: 200 μM substrate, 400 μM H2O2. The procedure: A reaction was typically quenched by adding 2-fold reaction volume of ethyl acetate which contained 30 μM of tetradecane as an internal standard. The reaction mixtures were vortexed for 1 min and then centrifuged at 12,000 rpm, 4 °C for 10 min to separate an organic and an aqueous phase. The organic phase was injected into an Agilent gas chromatography system (GC-MS) (Agilent 7890B equipped with Agilent 5977B MSD) equipped with a HP5-MS column (30 m × 0.25 mm × […]) (Agilent), and helium was used as a carrier gas. The oven conditions for C10FA and 1-nonene (C9 alkene) were ramped up from 60 to 240 °C with a rate of 19 ° C min^−1 and held at 240 °C for 1 min. […] For C18FA and 1-heptadecene (C17 alkene), the oven was ramped up from 60 to 250 °C with a rate of 22 °C min^−1 and hold at 250 °C for 4 min. For C20FA and 1-nonadecene (C19 alkene), the oven was ramped up from 100 to 250 °C with a rate of 23 °C min^−1 and held at 250 °C for 6 min. The response of target compounds was normalized with signals of the internal standard. The concentration of each compound was calculated based on a standard calibration curve.
For analyzing hydroxylated products of fatty acids, the reactions were quenched by adding an equal volume of acetonitrile, centrifuged, and filtrated. The analytes (10 μl) were injected into a liquid chromatography coupled with diode array and single quadrupole mass spectroscopy detection (LC-DAD/MS) (Agilent 1290 Infinity II LC System equipped with DAD, Single Quadrupole Mass Spectrometers system). A Zorbax eclipse plus C18 column (5 μm, 4.6 × 250 mm) (Agilent Technology) was used for separation. The mobile phase system A was water with 0.1% (v/v) formic acid, and system B was acetonitrile with 0.1% (v/v) formic acid.
All fatty acids were prepared in absolute EtOH at 20 mM as stock solutions. The reaction was carried out in 50 mM NaH2PO4 buffer with 300 mM NaCl, pH 7.5, with 2.5 or 10% (v/v) of EtOH, 200 μM of a substrate, and 400 μM of H2O2. The reactions were performed at 25 °C for 1 h, and then the alkene product was measured using GC-MS after the reactions were quenched and extracted with two-fold volume of ethyl acetate.
(§1) Site-directed mutagenesis of I178L of OleTLA and […] of OleTJE was done with overlaping PCR that used OleTLA or OleTJE plasmids as templates (Table S4). The PCR products were treated with DpnI in cut smart buffer at 37 °C for 16 h, transformed into E. coli XL−1 blue competent cells and grown at 37 °C on LB agar containing 50 μg/ml ampicillin. The plasmids of selected colonies were extracted for sequence verification. The plasmid containing the correct sequence was transformed into E. coli BL21 (DE3) for enzyme expression. The expression and purification methods of variants were the same as those of wild-type OleTLA and OleTJE.

The target in assay [1] is T1, OleTJE (Jeotgalicoccus sp. ATCC 8456, UniProt E9NSU2).
T1 sequence (E9NSU2 1-422): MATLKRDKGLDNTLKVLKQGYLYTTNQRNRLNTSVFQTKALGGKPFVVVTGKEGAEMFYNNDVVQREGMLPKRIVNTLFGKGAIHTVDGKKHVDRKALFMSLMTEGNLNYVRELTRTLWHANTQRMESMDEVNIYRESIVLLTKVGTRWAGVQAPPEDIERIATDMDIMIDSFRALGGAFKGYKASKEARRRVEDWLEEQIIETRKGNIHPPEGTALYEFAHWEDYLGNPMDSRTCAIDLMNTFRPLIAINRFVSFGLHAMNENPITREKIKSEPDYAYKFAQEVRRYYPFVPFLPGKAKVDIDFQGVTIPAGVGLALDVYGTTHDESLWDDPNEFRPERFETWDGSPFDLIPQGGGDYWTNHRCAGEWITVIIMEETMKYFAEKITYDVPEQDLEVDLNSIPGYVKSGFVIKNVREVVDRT
The arrangement: method as in PMID 28276499. The following applies: C14FA decarboxylation; cited from earlier work.

Assay [2] deals with T2, OleTLA (Lacicoccus alkaliphilus, UniProt A0A1M7CBV6).
T2 sequence (A0A1M7CBV6 1-424): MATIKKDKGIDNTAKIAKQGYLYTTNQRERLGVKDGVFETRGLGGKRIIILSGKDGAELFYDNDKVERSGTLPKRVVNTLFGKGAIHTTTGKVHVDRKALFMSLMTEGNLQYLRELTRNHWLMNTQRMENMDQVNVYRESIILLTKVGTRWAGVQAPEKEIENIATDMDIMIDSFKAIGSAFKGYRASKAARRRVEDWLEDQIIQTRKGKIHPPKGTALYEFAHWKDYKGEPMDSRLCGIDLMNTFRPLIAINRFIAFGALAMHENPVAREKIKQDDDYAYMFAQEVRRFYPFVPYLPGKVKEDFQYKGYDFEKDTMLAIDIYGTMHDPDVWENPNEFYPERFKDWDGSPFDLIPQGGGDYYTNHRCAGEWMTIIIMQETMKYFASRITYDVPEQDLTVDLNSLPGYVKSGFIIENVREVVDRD
As to the kind of experiment: Steady-state kinetics of C16FA decarboxylation with H2O2, C15 alkene by GC-MS. It counts as biochemical. The note with it: for kcat / Km: 400 μM H2O2, pH 7.5, 25 °C. The procedure:
(§2) Under specific times between 0.1 to 2 min, the reaction samples were taken and quenched by adding an equal volume of ethyl acetate. The ethyl acetate layer would contain the C15 alkene product, which was measured using GC-MS. Values of initial rates were plotted against substrate concentrations to analyze for Km and Vmax values using the Michaelis–Menten equation by GraphPad Prism software version 10.

In assay [3] the target is T1, OleTJE. Nature of the assay: Substrate binding by isothermal titration calorimetry (ITC). The following applies: pH 7.5, 25 °C. The arrangement: species or system Jeotgalicoccus sp. 8456. On the procedure: (§3) The reactions were constantly stirred at 750 rpm while controlling the temperature at 25 °C during titration. A total of 19 enzyme injections were added into the substrate solution. […] For the other 18 injections, 2 μl of the enzyme solution was added with […] to ensure that the conditions are under equilibrium. The data were processed and analyzed using the Microcal PEAQ-ITC analysis software to calculate the Kd value based on a single-site binding model.
In general terms: Isothermal titration calorimetry measures the heat released or taken up as one component is titrated into another.

The target of assay [4] is T2, OleTLA. The assay is described as above. The following applies: pH 7.5, 25 °C. The procedure: as §3, with “The enzyme solution was filled into a syringe while the C16FA solution was filled into the ITC cell. The reactions” for “The reactions”
The next assay addresses OleTLA I178L (Lacicoccus alkaliphilus, UniProt A0A1M7CBV6, I178L). As to the kind of experiment: Steady-state kinetics of C16FA decarboxylation with H2O2, C15 alkene by GC-MS. The note with it: 10% (v/v) EtOH, 400 μM H2O2, pH 7.5, 25 °C. In kind it is biochemical. The procedure: as §2, §1
Assay [5] has as its target T1, OleTJE. Described as above. It counts as biochemical, Jeotgalicoccus sp. 8456. The following applies: for Km / kcat: 400 μM H2O2, pH 7.5, 25 °C. On the procedure:
as §2

Assay [6] concerns the target T2, OleTLA. As to the kind of experiment: Equilibrium substrate binding by heme spectral change (absorbance at 390 nm). The note with it: read-out: Kd from absorbance changes at 390 nm.

“And” between values parts separate entries of the source, which are not always exact repeats. Equal entries are not always repeated. Where two headings read alike, the source gives them in different places.

Usually kcat stands for the maximal rate divided by the concentration of active sites. Take `CCCCCCCCCCCCCC(=O)O` [C14FA, tetradecanoic acid]: in the assay with OleTJE L176I, the “Decarboxylation activity of OleTJE L176I compared to that of OleTJE wild type” value is on record as “less than 1%”. Besides, the kcat on OleTJE [1] was 71 min⁻¹.

Usually Km stands for the substrate concentration at which the rate is half of its maximum. As a reminder, the Kd is the constant that tells how readily two partners part at equilibrium. For `CCCCCCCCCCCCCCCC(=O)O` [C16FA, hexadecanoic acid], the “Enhancement of kcat in 10% (v/v) EtOH compared to 2.5% (v/v) EtOH” value on OleTLA [2] was “around 4.3 fold”; at OleTJE [5], ~1.4 fold. Moreover, the turnover number (kcat) at OleTLA [2] (2.5% (v/v) EtOH) was 20.6 ± 0.5 min⁻¹; at OleTLA [2] (10% (v/v) EtOH) it was 88.4 ± 1.6 min⁻¹; on OleTLA I178L it was 96.0 ± 2.5 min⁻¹; at OleTJE [5] (2.5% (v/v) EtOH), 38.8 ± 0.9 min⁻¹; at OleTJE [5] (10% (v/v) EtOH) it was 55.1 ± 0.2 min⁻¹. The Km was determined as 5.4 ± 0.6 µM on OleTLA [2] (2.5% (v/v) EtOH, read-out: KM); 16.7 ± 0.6 µM on OleTLA [2] (10% (v/v) EtOH); 25 ± 0.6 µM at OleTLA I178L; 8.6 ± 1.4 µM at OleTJE [5] (2.5% (v/v) EtOH); 9.6 ± 0.6 µM on OleTJE [5] (10% (v/v) EtOH). Besides, the equilibrium dissociation constant (Kd) was 1930 ± 160 nM on OleTJE [3] (2.5% (v/v) EtOH); 440 ± 10 nM on OleTJE [3] (10% (v/v) EtOH); 950 ± 140 nM on OleTLA [4] (2.5% (v/v) EtOH); 1260 ± 230 nM at OleTLA [4] (10% (v/v) EtOH); 320 nM on OleTLA [6] (2.5% (v/v) EtOH); 530 nM on OleTLA [6] (10% (v/v) EtOH). Further, the Kd at OleTLA [6] (buffer (0% (v/v) EtOH)) is 370 nM. Moreover, the TΔS at OleTJE [3] (2.5% (v/v) EtOH) was 16.13 ± 2.15 kcal/mol; at OleTJE [3] (10% (v/v) EtOH) it was -5.15 ± 2.74 kcal/mol; at OleTLA [4] (2.5% (v/v) EtOH), 38.10 ± 2.65 kcal/mol; at OleTLA [4] (10% (v/v) EtOH), 58.93 ± 2.00 kcal/mol. The ΔG is -7.78 ± 0.05 kcal/mol on OleTJE [3] (2.5% (v/v) EtOH), -8.67 ± 0.01 kcal/mol on OleTJE [3] (10% (v/v) EtOH), -8.22 ± 0.08 kcal/mol at OleTLA [4] (2.5% (v/v) EtOH) and -8.06 ± 0.11 kcal/mol on OleTLA [4] (10% (v/v) EtOH). Besides, the ΔH is -12.19 ± 5.11 kcal/mol at OleTJE [3] (10% (v/v) EtOH); 29.97 kcal/mol and 29.97 ± 2.93 kcal/mol on OleTLA [4] (2.5% (v/v) EtOH); 50.83 kcal/mol and 50.83 ± 2.10 kcal/mol at OleTLA [4] (10% (v/v) EtOH). Besides, the “Decarboxylation activity of OleTJE L176I compared to that of OleTJE wild type” value in the assay on OleTJE L176I is recorded as “less than 5%”.

(Values after PMC12284513, “Unique structural features define the decarboxylation activity of a CYP152 fatty acid decarboxylase from Lacicoccus alkaliphilus” (The Journal of Biological Chemistry, 2025).)
